The values that follow are results of earlier work, collected in patent US10016363B2, “Pre-spray emulsions and powders containing non-polar compounds” (VIRUN, INC., priority 2014, dated 2018).

The conditions of this data set: reported HLB value of surfactant.

Where only a bound is given, the exact number is not on record here.

On to sucrose monopalmitate, for which the H.L.B. was greater than 10.
For sucrose dipalmitate, the H.L.B. is listed as 7.4.
Take sucrose distearate: the H.L.B. is given as 3.
